Test results taken from BindingDB's records for patent US9610299 (Gilead Sciences, 2017).

Key:
[1] = target: T1, Aldehyde dehydrogenase, mitochondrial (Homo sapiens, UniProt P05091); experiment: ALDH2 Assay
T1 sequence (P05091 whole entry): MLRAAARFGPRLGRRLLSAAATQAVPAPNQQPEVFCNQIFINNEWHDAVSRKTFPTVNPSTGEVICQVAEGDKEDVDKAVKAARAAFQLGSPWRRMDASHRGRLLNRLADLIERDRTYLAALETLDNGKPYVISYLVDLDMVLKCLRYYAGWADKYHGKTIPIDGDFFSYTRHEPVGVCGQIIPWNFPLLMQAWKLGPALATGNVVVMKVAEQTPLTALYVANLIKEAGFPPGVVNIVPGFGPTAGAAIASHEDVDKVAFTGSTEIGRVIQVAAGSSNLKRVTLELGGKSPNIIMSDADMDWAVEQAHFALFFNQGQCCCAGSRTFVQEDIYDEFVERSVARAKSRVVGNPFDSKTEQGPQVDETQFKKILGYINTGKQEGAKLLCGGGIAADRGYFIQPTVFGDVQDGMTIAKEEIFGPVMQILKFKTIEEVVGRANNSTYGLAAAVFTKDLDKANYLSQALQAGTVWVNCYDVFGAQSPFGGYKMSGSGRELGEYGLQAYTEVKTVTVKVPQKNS
Method: Standard ALDH2 reaction mixtures contained 150 uM formaldehyde, 2.5 mM NAD+, 10 mM MgCl2 and 10 nM recombinant human ALDH2 in 50 mM Hepes buffer, pH 7.4, 0.01% Tween 20 in a final volume of 50 ul using 384-well plates. After 60 min of pre-incubation of compound with ALDH2 and formaldehyde, the reaction was started by adding NAD+ and the reaction mixture was allowed to proceed for 90 minutes. Activity of the enzyme was determined by monitoring NADH formation using Perkin-Elmer Envision Reader with excitation and emission wavelengths set at 340 and 460 nm, respectively.

[2] = target: T2, Amine oxidase [flavin-containing] A (Homo sapiens, UniProt P21397); experiment: MAO-A and MAO-B Assay
T2 sequence (P21397 whole entry): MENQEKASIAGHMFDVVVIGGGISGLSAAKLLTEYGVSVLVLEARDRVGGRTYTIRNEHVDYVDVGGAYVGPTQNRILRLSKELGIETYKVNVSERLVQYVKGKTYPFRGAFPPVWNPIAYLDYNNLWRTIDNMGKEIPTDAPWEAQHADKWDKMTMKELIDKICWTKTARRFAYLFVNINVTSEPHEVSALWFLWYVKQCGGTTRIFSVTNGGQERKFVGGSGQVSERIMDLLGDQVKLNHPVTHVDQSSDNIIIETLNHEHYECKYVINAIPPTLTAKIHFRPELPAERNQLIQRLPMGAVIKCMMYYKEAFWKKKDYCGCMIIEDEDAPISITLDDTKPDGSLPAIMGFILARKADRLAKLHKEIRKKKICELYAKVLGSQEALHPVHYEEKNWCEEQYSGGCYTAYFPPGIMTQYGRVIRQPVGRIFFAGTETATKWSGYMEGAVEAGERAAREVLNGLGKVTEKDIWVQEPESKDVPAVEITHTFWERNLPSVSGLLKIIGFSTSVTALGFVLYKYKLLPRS
Method: (§1) MAO assays included luminogenic MAO substrate, reaction buffers, Luciferin Detection and the reconstitution buffer with esterase. Standard MAO reaction mixtures included microsome contained MAO-A (2 ug) or MAO-B (10 ug), 160 uM substrate for MAO-A or 16 uM substrate for MAO-B, MAO-A buffer (100 mM Hepes buffer, pH 7.5, 5% glycerol) or MAO-B buffer (100 mM Hepes, pH 7.5, 5% glycerol, 10% dimethyl sulfoxide) in a final volume of 30 ul. After 20 minutes of pre-incubation of the enzyme with compounds, the reaction was initiated by adding enzyme substrate and the reaction was allowed to proceed for 60 minutes. Reconstituted Luciferin Detection Reagent (30 ul) was then added is added to simultaneously stop the MAO reaction and convert the methyl ester derivative to luciferin and produce light. The amount of light produced is directly proportional to the activity of MAO. The mixtures were further incubated for 20 minutes and activity of the enzyme was determined using Perkin-Elmer Envision Reader.

[3] = target: T3, Amine oxidase [flavin-containing] B (Homo sapiens, UniProt P27338); experiment: MAO-A and MAO-B Assay
T3 sequence (P27338 whole entry): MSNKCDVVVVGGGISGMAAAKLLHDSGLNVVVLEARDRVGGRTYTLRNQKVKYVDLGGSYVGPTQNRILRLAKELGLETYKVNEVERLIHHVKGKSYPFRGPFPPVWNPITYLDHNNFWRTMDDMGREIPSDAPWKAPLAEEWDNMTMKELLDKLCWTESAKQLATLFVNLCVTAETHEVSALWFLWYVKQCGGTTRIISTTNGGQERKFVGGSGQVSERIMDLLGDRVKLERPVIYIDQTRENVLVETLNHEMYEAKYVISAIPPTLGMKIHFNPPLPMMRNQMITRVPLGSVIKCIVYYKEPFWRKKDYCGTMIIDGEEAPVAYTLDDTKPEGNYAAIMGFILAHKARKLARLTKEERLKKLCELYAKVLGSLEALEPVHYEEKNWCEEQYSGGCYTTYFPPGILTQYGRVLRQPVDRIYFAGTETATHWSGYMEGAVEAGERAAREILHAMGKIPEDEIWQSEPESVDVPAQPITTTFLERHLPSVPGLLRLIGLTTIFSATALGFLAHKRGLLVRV
Method: as §1

Structure (SMILES): Cc1cccc(C)c1C(=O)NCc1ccc(C2CCNC(=O)C2)cc1 (stereo not drawn) [US9610299, Example 6]
- IC50 [1]: 1.11 µM
- IC50 [2]: > 130 µM
- IC50 [3]: > 130 µM
